Where “and” joins values, the source holds several entries; their conditions need not be identical. Equal entries are not always repeated.
Columns and labels:
[1] = system: Plasmodium berghei; assay: Antimalarial effect against trophozoite-induced Plasmodium berghei in mice (Mus musculus) at 320 mg/kg subcutaneous dose; format: functional
[2] = system: Plasmodium berghei; assay: Antimalarial effect against trophozoite-induced Plasmodium berghei in mice (Mus musculus) at 160 mg/kg subcutaneous dose; format: functional
[3] = system: Plasmodium berghei; assay: Antimalarial effect against trophozoite-induced Plasmodium berghei in mice (Mus musculus) after 40 mg/kg subcutaneous dose; format: functional
[4] = system: Plasmodium berghei; assay: Antimalarial effect against trophozoite-induced Plasmodium berghei in mice (Mus musculus) at 80 mg/kg subcutaneous dose; format: functional
[5] = system: Plasmodium berghei; assay: Antimalarial effect against trophozoite-induced Plasmodium berghei in mice (Mus musculus) after 20 mg/kg subcutaneous dose; format: functional
[6] = system: Plasmodium berghei; assay: (§1) Antimalarial effect against trophozoite-induced Plasmodium berghei in mice (Mus musculus) at 640 mg/kg subcutaneous dose; format: functional
[7] = system: Mus musculus; assay: Number of mice cured at a dose of 640 mg/kg sc; format: functional; details: route subcutaneous
[8] = system: Plasmodium berghei; assay: Antimalarial activity against trophozoite-induced Plasmodium berghei in mice (Mus musculus); format: functional
[9] = The ratio of SD90 of the quinine hydrochloride, to the SD90 of the test substance for the Dose of mg/kg; format: functional
[10] = system: Plasmodium berghei; assay: as §1; format: functional; remark: listed apart in the source
[11] = system: Mus musculus; assay: Number of toxic deaths at a dose of 640 mg/kg; format: toxicity, organism-based; parameters: dose 640 mg/kg; details: in vivo
[12] = system: Mus musculus; assay: Number of mice cured at a subcutaneous dose of 320 mg/kg.; format: functional
[13] = system: Mus musculus; assay: Number of toxic deaths at a dose of 320 mg/kg; format: toxicity, organism-based; parameters: dose 320 mg/kg; details: in vivo

Structure (SMILES)	MST ([2]; 160 mg/kg)	MST [3] [days]	MST [4] [days]	MST [5] [days]	MST [6] [days]	MST [1] [days]	MST ([6]; 640 mg/kg)	MST [2] [days]	other results
CN1CCCC1CCNc1nc(Nc2ccc(C(F)(F)F)cc2)c2ccccc2n1 (stereo not drawn)	1.5 days and 1.7 days	0.3	0.5	0.3	7.7				MST ([1]; 320 mg/kg): 4.1 days and 4.3 days
CCN1CCCC(Nc2nc(Nc3cc(Cl)cc(Cl)c3)c3ccccc3n2)C1 (stereo not drawn)	0.4 days and 0.3 days		0.2	0.4		2.4	4.4 days and 6.3 days		MST ([3]; 40 mg/kg): 0.2 days and 0.1 days
CCN(CC)C1CCC(Nc2nc(Nc3cc(Cl)cc(Cl)c3)c3ccccc3n2)CC1 (stereo not drawn)	0.7 days and 0.5 days		0.5	0.3					MST ([1]; 320 mg/kg): 7.9 day and 8.1 MST; MST ([3]; 40 mg/kg): 0.5 days and 0.3 days; No. of survivals [7]: 5
CCN(CC)CCCC(C)Nc1nc(Nc2cc(OC)c(OC)c(OC)c2)c2ccccc2n1 (stereo not drawn)	0.3 days and 0.6 days		-0.3	0.3		0.5	3.5 days and 5 days		
FC(F)(F)c1cc(Nc2nc(NCCN3CCCC3)c3ccccc3n2)cc(C(F)(F)F)c1		0.2			1			0.2	SD90 [8]: 105 mg/kg/day; Ratio [9]: 105
Clc1cc(Cl)cc(Nc2nc(NCCCN3CCCCC3)nc3ccccc23)c1		0.2			1.6			0.2	
c1ccc2c(NCCCN3CCCC3)nc(Nc3nccs3)nc2c1		0.3						0.3	MST [10]: 0.9 days; No. of toxic deaths [11]: 3
CCN(CC)CCCNc1nc(Nc2ccc(C(F)(F)F)cc2)c2ccccc2n1	0.6 days and 0.3 days		0.8	0		9.2	10.1 days and 7.5 days		
CCN(CC)CCCC(C)Nc1nc(Nc2ccc(Cl)c(Cl)c2)c2ccccc2n1 (stereo not drawn)			0.3	0.1		1.3	4.7 days and 5.8 days		MST ([3]; 40 mg/kg): 0.3 days and 0.4 days
CCN1CCC(CNc2nc(Nc3cc(Cl)cc(Cl)c3)c3ccccc3n2)CC1	5.7 days and 5.9 days	0.5							MST ([4]; 80 mg/kg): 2.5 days and 2.7 days; MST ([5]; 20 mg/kg): 0.5 days and 0.3 days; No. of survivals ([12]; 320 mg/kg): 3 and 2; No. of survivals ([7]; 640 mg/kg): 3 and 2
CN1CCCC1CCNc1nc(Nc2ccc(Cl)c(Cl)c2)c2ccccc2n1 (stereo not drawn)	6.9 days and 7.1 days	0.5		0.3		11.2			No. of toxic deaths [13]: 1 and 2; MST ([4]; 80 mg/kg): 0.5 days and 0.7 days; No. of survivals [12]: 1; No. of survivals [7]: 1; No. of toxic deaths [11]: 2
CN(C)C1CCC(Nc2nc(Nc3cccc(Br)c3)c3ccccc3n2)CC1 (stereo not drawn)		-0.1			0.7			0.7	
CCN(CC)CCNc1nc(Nc2ccc(C(F)(F)F)cc2)c2ccccc2n1			-0.2	0.2		2.8	5.3 days and 5.5 days		
CCN(CC)C1CCC(Nc2nc(Nc3ccc(C(F)(F)F)cc3)c3ccccc3n2)CC1 (stereo not drawn)	9.7 days and 9.5 days	0.5							MST ([4]; 80 mg/kg): 0.7 days and 0.5 days; MST ([5]; 20 mg/kg): 0.5 days and 0.3 days; No. of survivals [12]: 5; No. of survivals ([7]; 640 mg/kg): 3 and 2
CCN(CC)CCCC(C)Nc1nc(Nc2ccc(C(F)(F)F)cc2)c2ccccc2n1 (stereo not drawn)		-0.6			1.6			0	
CCN(CC)CCNc1nc(Nc2cc(Cl)c(Cl)cc2Cl)nc2ccccc12		0.4			1.2			0.4	
CN(C)c1ccc(Nc2nc(NC3CCC(N(C)C)CC3)nc3ccccc23)cc1 (stereo not drawn)		-0.2			1.1			0.6	
CCN1CCCC(Nc2nc(Nc3ccc(Cl)c(Cl)c3)c3ccccc3n2)C1 (stereo not drawn)	0.9 days and 2.2 days		0.9	0.9		2.9	9.5 days and 10.6 days		
CCN(CC)CCCNc1nc(Nc2cc(Cl)cc(Cl)c2)c2ccccc2n1	3 days and 2.7 days		1.4	0.2		5			MST ([10]; 640 mg/kg): 14.5 days and 15.7 days; No. of survivals [7]: 2

Reference: ChEMBL document CHEMBL1121775, “Synthesis and antimalarial effects of N2-aryl-N4-[(dialkylamino)alkyl]- and N4-aryl-N2-[(dialkylamino)alkyl]-2,4-quinazolinediamines” (J Med Chem, 1981)
